The term melting point denotes the temperature of the solid-liquid transition.

This is an account of results in a melting point compilation (Tetko et al.).

`O=C1Nc2ccccc2C1O` (centres undefined) had a melting point of 161 to 163 °C.
In the case of `N#Cc1cccc(CCl)c1` it was 67 to 70 °C; in that of `COc1ccc(S(=O)(=O)Cl)c(Cl)c1Cl`, 92 to 94 °C.
In the case of `Cc1cc(C(C)(C)C)cc(C)c1CCNC(=O)CCl` it was 114 to 116 °C; in that of `Cc1cc(C(=O)O)c(Br)s1`, 181 to 183 °C; in that of `O=C(O)c1ccc(Sc2ccccc2)c([N+](=O)[O-])c1`, 228 to 230 °C.
In the case of `O=C(O)C(CO)NS(=O)(=O)c1ccc(Br)cc1` (centres undefined), the melting point fell in the range of 239 to 241 °C.
In the case of `Nc1cccc(C(=O)Nc2ccncc2)c1` it was 224 to 226 °C; in that of `N#Cc1cnn(-c2ccc(Br)cc2)c1N`, 177 to 179 °C.
In the case of `NS(=O)(=O)c1ccc(C(=O)O)o1` it was 212 to 214 °C; in that of `O=c1[nH]c2ccc(S(=O)(=O)Cl)cc2[nH]1`, 210 to 212 °C.
In the case of `O=C(O)C1CCCN1C(=O)c1ccc2ccccc2c1O` (centres undefined) it was 197 to 199 °C; in that of `N#Cc1cccc(NC(=O)CCl)c1`, 143 to 145 °C; in that of `O=C1CCN(c2ccccc2)C1`, 94 to 96 °C.
For the compound `COc1ccc(S(=O)(=O)Cl)cc1[N+](=O)[O-]`, the melting point lay within 58 to 60 °C.
In the case of `CC(O)C1CCCNC1` (centres undefined) it was 52 to 54 °C; in that of `CC(C)(C)OC(=O)N1CCC(COS(C)(=O)=O)CC1`, 84 to 86 °C; in that of `CC(C)(O)c1ccc2[nH]ccc2c1`, 110 to 112 °C.
In the case of `CCOCCNC(=O)c1cccc(Br)c1` it was 62 to 64 °C; in that of `Cc1ccsc1-c1nnc(N)o1`, 147 to 149 °C; in that of `Cc1ccc(-n2c(-c3ccccc3)cnc2S)c(C)c1`, 247 to 249 °C.
`NC(=O)NCc1ccc(N)cc1` returned a melting point of 159 to 161 °C.
Regarding `O=C(NC1CC1)c1cc(Cl)nc2ccccc12`, the melting point lay within 190 to 193 °C.
In the case of `O=C(O)c1ccccc1NS(=O)(=O)c1ccc(Br)cc1` it was 225 to 227 °C; in that of `COc1ccc(C(=O)O)cc1S(=O)(=O)Nc1ccc(C)cc1`, 258 to 260 °C.
In the case of `Cn1c(=O)n(C)c2cc(N)ccc21` it was 148 to 150 °C.
In the case of `O=C(O)CCCSc1ccccc1` it was 66 to 68 °C.
In turn, `COc1ccc([N+](=O)[O-])cc1NC(=O)CCCl` displayed a melting point of 159 to 161 °C.
In the case of `CCOc1ccc(-n2c(C)cc(C(=O)CCl)c2C)cc1` it was 118 to 122 °C; in that of `NC(=O)C1CCC(C(F)(F)F)NC1` (centres undefined), 127 to 129 °C; in that of `CC(C)C(Br)C(=O)NC1CCCC1` (centres undefined), 99 to 101 °C.
In the case of `Cc1nc2cc(N)ccc2o1` it was 72 to 74 °C.
Take `NCc1ccc(N2CCOC2=O)cc1`: the melting point was in the range of 94 to 96 °C.
In the case of `COc1cc(N2CC(C(=O)O)CC2=O)cc(OC)c1OC` (centres undefined) it was 143 to 145 °C.
`CC(C)(C)NS(=O)(=O)c1ccc(Cl)c([N+](=O)[O-])c1` registered a melting point of 88 to 90 °C.
On to `CC1CCN(c2ccc(NC(=O)CCC(=O)O)cc2)CC1`, for which the melting point lay within 174 to 176 °C.
`COC(=O)c1sccc1S(N)(=O)=O` gave a melting point of 120 to 122 °C.
In the case of `CC(Br)C(=O)c1ccc(Cl)cc1` (centres undefined) it was 68 to 70 °C; in that of `CCc1cc(C(=O)O)nn1C`, 119 to 121 °C; in that of `CC1NCCNC1=O` (centres undefined), 65 to 67 °C.
In the case of `Cc1ccc(C#N)c(=O)n1C` it was 129 to 131 °C; in that of `O/N=C(\Cc1nccn1C(F)F)c1ccccc1`, 150 to 152 °C; in that of `COc1cc(C=O)cc(Br)c1OCC(=O)N(C)C`, 62 to 64 °C.
In the case of `O=C1Nc2ccccc2NC1CO` (centres undefined) it was 140 to 142 °C.
`Nc1nccc(-c2cccs2)n1` showed a melting point of 185 to 187 °C.
In the case of `CCNS(=O)(=O)c1cc(F)ccc1F` it was 68 to 70 °C.
Turning to `Cc1oc(-c2cccs2)nc1C(=O)O`, the melting point lay in the range of 196 to 198 °C.
In the case of `Cc1cc(Br)cc2c(O)c(C#N)cnc12` it was 349 to 351 °C.
In the case of `O=c1ccc2cc(S(=O)(=O)Cl)ccc2[nH]1` it was 278 to 280 °C.
In turn, `COCc1nnc(NN)s1` returned a melting point of 109 to 111 °C.
Compound `COC(=O)CCCOc1ccc(N)c2ccccc12` had a melting point of 69 to 71 °C.
In the case of `CC(C)c1ccc(SCC(=O)O)cc1` it was 66 to 68 °C; in that of `O=C1CCc2cc(S(=O)(=O)Cl)c(F)cc2N1`, 207 to 209 °C; in that of `NNc1ncccc1C(F)(F)F`, 71 to 73 °C.
In turn, `CN(C)Cc1c(O)ccc2ccccc12` yielded a melting point of 73 to 75 °C.
In the case of `NCC(O)c1ccc(Cl)s1` (centres undefined) it was 74 to 76 °C; in that of `CCn1c(NN)nc2ccccc2c1=O`, 159 to 161 °C; in that of `OCc1ccc(-n2ccnc2)nc1`, 128 to 130 °C.
In the case of `CC(C#N)CSc1ccccc1NC(=O)CCl` (centres undefined) it was 94 to 96 °C; in that of `CC(C)CN1C(=O)c2ccccc2N2C(=O)CCC12C(=O)O` (centres undefined), 105 to 107 °C.
For the compound `NC(=O)c1cccc2[nH]ccc12`, the melting point was in the range of 138 to 140 °C.
In the case of `COC(=O)C1CCc2ccccc2C1=O` (centres undefined) it was 71 to 73 °C.
Consider `Cc1cccc(Cl)c1S(N)(=O)=O`, for which the melting point fell in the range of 119 to 121 °C.
Compound `Cn1cc(C(=O)NN)c2ccccc21` came in with a melting point of 138 to 140 °C.
In the case of `Cc1cccc(N)c1C(N)=O` it was 141 to 143 °C; in that of `CC(O)c1ncc(Cl)n1C` (centres undefined), 113 to 115 °C; in that of `COc1ccc(-c2nc(N)sc2C)cc1`, 120 to 122 °C.
In the case of `O=S(=O)(c1ccc(Cl)nc1)N1CCCCC1`, the melting point lay within 130 to 132 °C.
In the case of `O=C(O)c1cc2c(s1)CCCCC2` it was 162 to 166 °C; in that of `CC1(C)NC(=O)N2C1=NC(=N)C2(C)C`, 236 to 238 °C; in that of `Cc1nnc(-c2ccc(C(=O)O)cc2)o1`, 284 to 286 °C.
In the case of `O=C(O)c1cnns1` it was 103 to 105 °C; in that of `NS(=O)(=O)c1cc([N+](=O)[O-])ccc1F`, 139 to 141 °C.
In the case of `CC(C)(C)c1ncsc1C(=O)O` it was 185 to 187 °C.
In the case of `Oc1cccc(CNCC2CC2)c1`, the melting point lay in the range of 99 to 101 °C.
In the case of `O=C(O)c1noc(-c2cccc(F)c2F)n1` it was 113 to 115 °C; in that of `Cc1nn(C)c2nc(C3CC3)cc(C(=O)O)c12`, 242 to 244 °C; in that of `O=c1[nH]cnc2cc3ccccc3cc12`, 282 to 284 °C.
In the case of `CN(CCCC(=O)O)S(=O)(=O)c1ccc(F)cc1` it was 74 to 76 °C; in that of `CCCC(=O)NC1CCCNC1` (centres undefined), 57 to 59 °C.
In turn, `NS(=O)(=O)C1CCCNC1` (centres undefined) yielded a melting point of 119 to 121 °C.
As to `O=C(O)CC(Br)C(=O)c1ccc(F)cc1` (centres undefined), the melting point fell in the range of 128 to 131 °C.
On to `O=C(O)CC1CCc2ccccc2C1` (centres undefined), for which the melting point lay in the range of 80 to 82 °C.
In the case of `COc1cc(C=O)cc2sc(=O)oc12` it was 160 to 162 °C; in that of `CC(C)n1[nH]ccc1=NC(=O)OCC(F)(F)F`, 77 to 79 °C; in that of `N#Cc1ccc(Br)cc1[N+](=O)[O-]`, 91 to 93 °C.
Consider `Fc1cc(CBr)c2ncccc2c1`, for which the melting point lay within 96 to 98 °C.
In the case of `O=C(O)C1CC2CCC(C1)N2C1CC1` (centres undefined), the melting point was in the range of 156 to 158 °C.
With `CS(=O)c1nnc[nH]1` (centres undefined), the melting point fell in the range of 119 to 121 °C.
